Format in all cases: cell-based
Assay [1] relates to synovial sarcoma cell lines (SYO1, Yamato, HS-SY-II, and ASKA). In words: Growth of synovial sarcoma cell lines (IncuCyte confluency, crystal violet, colony imaging). The conditions noted are these: 1 μM in crystal violet assay, FIGS. 5, 6, 7. The protocol:
(§1) Cells were treated with DMSO or the BRD9 degrader, Compound 1, at indicated concentrations, and proliferation was monitored from day 7 to day 14 by measuring confluency over time using an IncuCyte live cell analysis system (FIG. 5). Growth medium and compounds were refreshed every 3-4 days.
(§2) Cells were seeded into 12-well plates and treated with DMSO, 1 μM BRD9 inhibitor, Compound 2 (also known as BI-7273, see Martin et al, J Med Chem. 59(10):4462-4475 (2016); see structure of compound 2 below), or 1 μM BRD9 degrader, Compound 1.
(§3) The number of cells was optimized for each cell line. Growth medium and compounds were refreshed every 3-5 days. SYO1, Yamato, A549, 293T and HS-SY-II cells were fixed and stained at day 11. ASKA cells were fixed and stained at day 23. Staining was done by incubation with crystal violet solution (0.5 g Crystal Violet, 27 ml 37% Formaldehyde, 100 mL 10×PBS, 10 mL Methanol, 863 dH20 to 1 L) for 30 min followed by 3× washes with water and drying the plates for at least 24 h at room temperature. Subsequently plates were scanned on an Odyssey CLx Imaging system (FIG. 6).
(§4) Cells were seeded into 96-well ultra low cluster plate (Costar, #7007) in 200 μL complete media and treated at day 2 with DMSO, Staurosporin, or BRD9 degarder, Compound 1, at indicated doses (FIG. 7). Media and compounds were changed every 5 d and cell colonies were imaged at day 14.

Assay [2] has as its system non-synovial control cancer cell lines (293T, A549, G401). Kind of assay: Growth of non-synovial control cancer cell lines (crystal violet, colony imaging). Particulars: FIGS. 5, 6, 7. The protocol:
as §1, §2, §3, §4

For assay [3], the system named is synovial sarcoma cell lines (SYO1, HS-SY-II, and ASKA). Kind of assay: Growth of synovial sarcoma cell lines, crystal violet staining at day 14. Particulars: for inhibition of cell growth: SYO1, HS-SY-II, ASKA, treated daily, day 14, FIG. 8. The protocol:
(§5) Cells were seeded into 6-well or 12-well plates and were treated daily with a BRD9 degrader (Compound 1), a bromo-domain BRD9 binder (Compound 2), E3 ligase binder (lenalidomide), DMSO, or staurosporin (positive control for cell killing), at indicated concentrations. The number of cells was optimized for each cell line. Growth media was refreshed every 5 days. By day 14, medium was removed, cells were washed with PBS, and stained using 500 μL of 0.005% (w/v) crystal violet solution in 25% (v/v) methanol for at least 1 hour at room temperature. Subsequently plates were scanned on an Odyssey CLx Imaging system.

In assay [4] the test system is non-synovial control cancer cell lines (RD, HCT116, and Calu6). In words: Growth of non-synovial control cancer cell lines, crystal violet staining at day 14. Particulars: treated daily, FIG. 9. The procedure:
as §5

The test system of assay [5] is SYO1 cells. In words: Cell cycle analysis, Click-iT Plus EdU Flow Cytometry Assay. The conditions noted are these: SYO1, 200 nM or 1 μM, 8 or 13 days, compared to DMSO and lenalidomide. The protocol: (§6) SYO1 cells were treated for 8 or 13 days with DMSO, a BRD9 degrader (Compound 1) at 200 nM or 1 μM, or an E3 ligase binder (lenalidomide) at 200 nM. Compounds were refreshed every 5 days. Cell cycle analysis was performed using the Click-iT™ Plus EdU Flow Cytometry Assay (Invitrogen). The apoptosis assay was performed using the Annexin V-FITC Apoptosis Detection Kit (Sigma A9210). Assays were performed according to the manufacturer's protocol.

In assay [6] the test system is SYO1 cells. Kind of assay: Apoptosis assay, Annexin V-FITC Apoptosis Detection Kit. The conditions noted are these: SYO1, 200 nM or 1 μM, 8 days, compared to DMSO controls. The protocol: as §6

Molecules are shown by their SMILES.

On to `COc1cc(-c2cn(C)c(=O)c3cnccc23)cc(OC)c1CN(C)CC(=O)NCCOCCOCCNc1cccc2c1C(=O)N(C1CCC(=O)NC1=O)C2=O` (centres unmarked) [Compound 1], for which the “inhibition of cell growth” value is recorded as “results in inhibition of the growth of the cells” in assay [1], “does not result in inhibition of the growth” in assay [2], “resulted in inhibition of the growth of the cells” in assay [3] and “did not result in inhibition of the growth” in assay [4]. Besides, in assay [3] (all synovial cell lines, versus Compound 2 and lenalidomide), the “growth inhibition compared with the other agents tested” value is reported as “most significant growth inhibition”. Further, the “numbers of cells in the S-phase of the cell cycle” value in the assay with SYO1 cells [5] is listed as “reduced numbers of cells in the S-phase”. Also, the “numbers of early- and late-apoptotic cells” value in the assay on SYO1 cells [6] was “increased numbers of early- and late-apoptotic cells”.

Take `COc1cc(-c2cn(C)c(=O)c3cnccc23)cc(OC)c1CN(C)C` [Compound 2]: the “inhibition of cell growth” value in assay [1] was “results in inhibition of the growth of the cells”; in assay [2] it was “does not result in inhibition of the growth”; in assay [3], “resulted in inhibition of the growth of the cells”; in assay [4], “did not result in inhibition of the growth”.

Values taken from patent US11773085B2 (Foghorn Therapeutics Inc., priority 2018, dated 2023).
